Laboratory results: article PMC2678238 (Journal of biological inorganic chemistry : JBIC : a …, 2009)
Read-outs that look alike come from different tables or passages of the source.

Experiments:
[1] = target: T1, Co(II)-loaded PfMetAP-II (Pyrococcus furiosus, UniProt P56218); test: Enzymatic assay of MetAP; type: biochemical
[2] = target: T2, Co(II)-loaded EcMetAP-I (Escherichia coli, UniProt P0AE18); test: Isothermal titration calorimetry; type: binding; conditions: for n (stoichiometry): ITC fit; for TΔS / ΔG: from ITC via Gibbs relationship
T2 sequence (P0AE18 whole entry): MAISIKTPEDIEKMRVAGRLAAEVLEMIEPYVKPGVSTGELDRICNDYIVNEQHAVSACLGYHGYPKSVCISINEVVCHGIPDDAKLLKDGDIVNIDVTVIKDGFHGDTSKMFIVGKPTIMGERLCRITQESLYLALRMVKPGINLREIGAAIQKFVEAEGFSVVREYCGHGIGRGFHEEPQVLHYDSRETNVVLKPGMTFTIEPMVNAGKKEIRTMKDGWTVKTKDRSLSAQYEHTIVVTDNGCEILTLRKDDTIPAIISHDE

[3] = target: T2, Co(II)-loaded EcMetAP-I; test: Enzymatic assay of MetAP; type: biochemical
[4] = target: T1, Co(II)-loaded PfMetAP-II; test: Isothermal titration calorimetry; type: binding; conditions: for n (stoichiometry): ITC fit; for TΔS / ΔG: from ITC via Gibbs relationship
[5] = tested on: Mn(II)-loaded HsMetAP-II; conditions: in words; cited from earlier work
[6] = target: T3, Mn(II)-loaded PfMetAP-II (Pyrococcus furiosus, UniProt P56218); test: Isothermal titration calorimetry; type: binding; conditions: for fold stronger binding (Kd) to Co(II)-loaded than Mn(II)-loaded PfMetAP-II: ITC Kd Mn(II)-loaded vs Co(II)-loaded PfMetAP-II; for n (stoichiometry): ITC fit
T3 sequence (P56218 whole entry): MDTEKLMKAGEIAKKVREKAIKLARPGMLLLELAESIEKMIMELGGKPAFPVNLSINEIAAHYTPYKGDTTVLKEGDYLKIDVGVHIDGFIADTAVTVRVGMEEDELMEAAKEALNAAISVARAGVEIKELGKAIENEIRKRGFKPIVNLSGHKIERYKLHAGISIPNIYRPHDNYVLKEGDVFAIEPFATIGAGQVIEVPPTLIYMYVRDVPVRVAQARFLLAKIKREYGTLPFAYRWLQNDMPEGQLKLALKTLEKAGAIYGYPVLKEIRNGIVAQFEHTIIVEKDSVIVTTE

[7] = tested on: Co(II)-loaded HsMetAP-II; conditions: in words; cited from earlier work
[8] = target: T4, Mn(II)-loaded EcMetAP-I (Escherichia coli, UniProt P0AE18); test: Isothermal titration calorimetry; type: binding; conditions: for fold stronger binding (Kd) to Co(II)-loaded than Mn(II)-loaded EcMetAP-I: ITC Kd Mn(II)-loaded vs Co(II)-loaded EcMetAP-I; for n (stoichiometry): ITC fit
T4 sequence (P0AE18 whole entry): as the sequence (P0AE18 whole entry) above

[9] = target: T3, Mn(II)-loaded PfMetAP-II; test: Enzymatic assay of MetAP; type: biochemical
[10] = target: T4, Mn(II)-loaded EcMetAP-I; test: Enzymatic assay of MetAP; type: biochemical
[11] = [MnMn(PfMetAP-II)], from ITC via Gibbs relationship
[12] = [MnMn(EcMetAP-I)], from ITC via Gibbs relationship

T1 sequence (P56218 whole entry): as the sequence (P56218 whole entry) above

Row | Compound | n (stoichiometry) ([2]; [CoCo(EcMetAP-I)]) | TΔS ([2]; [CoCo(EcMetAP-I)]) | ΔG ([2]; [CoCo(EcMetAP-I)]) | n (stoichiometry) ([4]; [CoCo(PfMetAP-II)]) | TΔS ([4]; [CoCo(PfMetAP-II)]) | ΔG ([4]; [CoCo(PfMetAP-II)]) | fold stronger binding (Kd) to Co(II)-loaded than Mn(II)-loaded PfMetAP-II [6] | n (stoichiometry) ([6]; [MnMn(PfMetAP-II)]) | ΔG [6, 11] | inhibition of Co(II)-loaded HsMetAP-II [7] | fold stronger binding (Kd) to Co(II)-loaded than Mn(II)-loaded EcMetAP-I [8] | n (stoichiometry) ([8]; [MnMn(EcMetAP-I)]) | ΔG [8, 12] | also measured
1 | CCSCC[C@@H](N)C(O)C(=O)N[C@@H](C)c1cccc2ccccc12 (mixture of isomers) [A-311263, ((2RS,3R)-3-amino-2-hydroxy-5-ethylthio)pentanoyl-((S)-(−)-(1-naphthyl)ethyl)amide] | 1 | 7.89 kcal/mol | -7.65 kcal/mol | 1 | 5.02 kcal/mol | -8.65 kcal/mol | approximately 58 fold | 1 | -6.24 kcal/mol | equally well | approximately 21 fold | 1 | -5.86 kcal/mol | Ki ([1]; [CoCo(PfMetAP-II)], competitive inhibition fit, substrate MGMM): 2 µM; Kd ([2]; [CoCo(EcMetAP-I)], ITC, 25.0 °C, HEPES pH 7.5): 2.4 ± 0.1 µM; Ki ([3]; [CoCo(EcMetAP-I)], competitive inhibition fit, substrate MGMM): 3 µM; Kd ([4]; [CoCo(PfMetAP-II)], ITC, 25.0 °C, HEPES pH 7.5): 0.45 ± 0.11 µM; inhibition of Mn(II)-loaded HsMetAP-II [5]: equally well; Kd ([6]; [MnMn(PfMetAP-II)], ITC, 25.0 °C, HEPES pH 7.5): 26 ± 5 µM; Kd ([8]; [MnMn(EcMetAP-I)], ITC, 25.0 °C, HEPES pH 7.5): 50 ± 5 µM; TΔS [8, 12]: 1.4 kcal/mol
2 | c1ccc2cc(CSc3nnc[nH]3)ccc2c1 [A-310840, 3-((2-naphthylmethyl)sulfanyl)-4H-1,2,4-triazole] | 1 | 4.78 kcal/mol | -6.81 kcal/mol | 1 | 6.45 kcal/mol | -7.77 kcal/mol | approximately 333 fold | 1 | -4.33 kcal/mol | strongly inhibits | approximately 71 fold | 1 | -4.28 kcal/mol | IC50 [1]: 15 µM; Ki [1]: 3 µM; Kd [2]: 10 ± 0.1 µM; IC50 [3]: 44 µM; Ki [3]: 8 µM; IC50 [9]: 1000 µM; Ki [9]: 440 µM; fold less potent (IC50) for Mn(II)-loaded than Co(II)-loaded PfMetAP-II ([9]; IC50 Mn(II)-loaded vs Co(II)-loaded PfMetAP-II): approximately 67 fold; Kd [4]: 2 ± 0.1 µM; IC50 [10]: 1000 µM; Ki [10]: 750 µM; fold less potent (IC50) for Mn(II)-loaded than Co(II)-loaded EcMetAP-I ([10]; IC50 Mn(II)-loaded vs Co(II)-loaded EcMetAP-I): approximately 23 fold; Kd [6]: 666 ± 10 µM; TΔS [6, 11]: 4.06 kcal/mol; Kd [8]: 714 ± 10 µM
